Measurements from article PMC4169866 (Investigational New Drugs, 2014).
“Also recorded” adds a separate entry of the source. Structures can show the parent of a compound that is named as a salt.

Experiments:
[1] = test system: U2OS cells; test: DNA content (cell cycle) in U2OS phenotypic assay; assay type: cell-based, human
Description: U20S cells are cultured in McCoy's 5A modified media (Invitrogen), supplemented with 10% FBS and plated in 96-well, flat-bottom plates at a density of 5,000 cells/well for incubation overnight. Compounds in DMSO stock solution are diluted serially 1:3 in McCoy's 5A media and incubated with cells for 16 hours for multiplexing pCTD/DNA content readouts. Cells are fixed with Prefer (Anatech LTD, MI) for 30 minutes at room temperature and permeated with 0.1% Triton-X 100 in PBS or cold methanol (-20°C) for 15 minutes, respectively. After blocking with 1% BSA/PBS for 30 min, cells are incubated with primary antibody (CTD p-Ser2, Covance) at 1:1000 dilution in 1% BSA/PBS containing 50 ug/ml RNAse ([…], Sigma) at 4°C overnight. […] Table S1 and Figure S1.

[2] = test system: colo-205 cells; test: DNA content / G1 arrest assay, colo-205 (Acumen); assay type: cell-based, human; conditions: for 2N cell population / 4N cell population / S cell population: Colo-205 cells
Description: (§1) Details for the cellular assays are provided in the supplemental materials. Briefly, image-based assays (Acumen Explorer, TPP LabTech) were used for compound screening. […] After treatment, the cells were washed, fixed and stained with antibodies to detect phosphoproteins and Propidium Iodide to monitor DNA content. The plates were then analyzed on an Acumen Explorer (TTP Labtech). The IC50 and EC50 values are determined by curve fitting to a 4-parameter logistic for each output using ACTIVITY BASE™ software.
(§2) Fixed cells are blocked with 1% bovine serum albumin (BSA, Amersham cat # RPN412V) for 30 minutes. […] Image analysis is based on cellular fluorescent signals for identifying cells in different subpopulations. Assay outputs are a percentage of each identified subpopulations; percent phosphoRB positive, percent 2 N, and percent 4 N. The IC50 and EC50 values are determined by curve fitting to a 4-parameter logistic for each output using ACTIVITY BASE™.

[3] = test system: pCTD (pSer2) U2OS; test: Cellular assay for inhibition of RNA polymerase CTD (Ser2) phosphorylation (pCTD), U2OS; assay type: cell-based; conditions: Homo sapiens, n=1
Description: U20S cells are cultured in McCoy’s 5A modified media (Invitrogen), supplemented with 10% FBS and plated in 96-well, flat-bottom plates at a density of 5,000 cells/well for incubation overnight. Compounds in DMSO stock solution are diluted serially 1:3 in McCoy’s 5A media and incubated with cells for 16 hours for multiplexing pCTD/DNA content readouts. Cells are fixed with Prefer (Anatech LTD, MI) for 30 minutes at room temperature and permeated with 0.1% Triton-X 100 in PBS or cold methanol (-20°C) for 15 minutes, respectively. After blocking with 1% BSA/PBS for 30 min, cells are incubated with primary antibody (CTD p-Ser2, Covance) at 1:1000 dilution in 1% BSA/PBS containing 50 ug/ml RNAse (R6513, Sigma) at 4°C overnight. […] The IC50 and EC50 values are determined by curve fitting to a 4-parameter logistic for each output using ACTIVITY BASE™.
The assay detects CDK9 activity through both the inhibition of phosphorylation ser2 of the C-terminal repeat domain (pCTD) of RNA polymerase II, and a CDK9-modulated G2/M arrest [accumulation of cells with 4N DNA content]

[4] = PK/PD model, colo-205 bearing mice, continuous dosing ref 37; cited from earlier work
[5] = target: Aurora B (Homo sapiens, UniProt Q96GD4); test: Biochemical kinase profiling Aurora B
[6] = target: ERK1 (Homo sapiens, UniProt P27361); test: Biochemical kinase profiling ERK1
[7] = test system: Colo-205 colorectal xenografts; test: Subcutaneous colo-205 xenograft antitumor activity; assay type: in vivo, mice; conditions: for Percent delta T/C, percent regression: Colo-205 colorectal
Description: (§3) All animal studies were performed in accordance with American Association for Laboratory Animal Care institutional guidelines, and all protocols were approved by the Eli Lilly and Company Animal Care and Use Committee. Tumor cell lines were grown, harvested, and resuspended in a 1:1 mixture of serum-free media and matrigel (BD Biosciences), and 5 × 10^6 cells were injected subcutaneously in the rear flank of 5-to-6-week-old CD1 nu/nu female mice (Charles River Laboratories for MV4-11, mice from Harlan Laboratories for others).
(§4) When the mean tumor volume was approximately 150–300 mm^3, animals were randomized by tumor volume and the compound was administered. […] Gemcitabine was formulated in saline and administered by intraperitoneal injection. Tumor volume and body weight were measured twice weekly. When tumors were collected for biomarker analysis, the animals were asphyxiated with CO2 and the xenograft tumors excised, flash frozen in liquid nitrogen, and stored at −80 °C until analyzed. For analysis, tumor volume data were transformed to a log scale to equalize variance across time and treatment groups. The log volume data were analyzed with a 2-way repeated measures analysis of variance by time and treatment using the MIXED procedure in SAS software (version 9.2). The correlation model for the repeated measures was spatial power. Treated groups are compared to the control group at each time point.

[8] = target: PLK3 (Homo sapiens, UniProt Q9H4B4); test: Biochemical kinase profiling PLK3
[9] = target: Aurora A (Homo sapiens, UniProt O14965); test: Biochemical kinase profiling Aurora A
[10] = target: cRaf (Homo sapiens, UniProt P04049); test: Biochemical kinase profiling cRaf
[11] = test system: pERK A375; test: pERK inhibition, A375; assay type: cell-based; conditions: Homo sapiens, A-375; read-out: pERK inh. A375 IC50
[12] = set-up: method as in manuscript in preparation; conditions: ref manuscript in preparation; cited from earlier work
[13] = test system: pRb (pSer780) colo-205; test: Cellular assay for inhibition of p-Rb (Ser780), colo-205 (Acumen); assay type: cell-based; conditions: Homo sapiens, Fig. 2a, as given in discussion
Description: as §1, §2

[14] = test system: Rb-proficient MDA-MB-231 breast cancer cells; test: Flow cytometry cell cycle distribution, MDA-MB-231; assay type: cell-based, human
Description: (§5) Flow cytometry was also used to determine cell cycle distribution in cell lines, as described in the supplemental materials.
(§6) Flow cytometry was used to determine cell cycle distribution in cell lines. Cells were cultured in growth media under subconfluent conditions and treated with indicated concentrations of compound solubilized in DMSO for 24 hours at 37°C/5% CO2. After treatment, cells were collected, washed once with 4° C PBS, and fixed with 70% ethanol/30% water at -20 °C for 30 minutes. Cells were then collected by centrifugation, washed once with PBS, and stained for 30 minutes at room temperature by the addition of 1 mL of propidium iodide/Triton X-100 staining solution (20µg/mL of propidium iodide, 200µg/mL DNase-free RNase A, 0.1%(v/v) Triton x-100). Cell cycle analysis was performed using a Cytomics™ FC500 (Coulter); data were analyzed using ModFit v3.1 software (Verity).

[15] = target: PLK1 (Homo sapiens, UniProt P53350); test: Biochemical kinase profiling PLK1
[16] = target: bRaf (Homo sapiens, UniProt P15056); test: Biochemical kinase profiling bRaf
[17] = target: T1, TRKA (Homo sapiens, UniProt P04629); test: Millipore (UBI) kinase panel TRKA; assay type: biochemical; conditions: generated at millipore (UBI) kinase panel
T1 construct: purchased Millipore/UBI

[18] = target: AKT1 (Homo sapiens, UniProt P31749); test: Biochemical kinase profiling AKT1
[19] = test system: MV4-11 acute myelocytic leukemia (AML) cells; test: Flow cytometry cell cycle distribution, MV4-11; assay type: cell-based, human
Description: as §5, §6

[20] = Tolerability in colo-205 xenograft-bearing mice; assay type: in vivo; conditions: 56-day schedules
Description: as §3, with “others). Tumor volume was estimated by using the formula: vol = l × w^2 × […], where one and w are perpendicular measured diameters, and one is greater than or equal to w.” for “others).”
When the mean tumor volume was approximately 150–300 mm^3, animals were randomized by tumor volume and the compound was administered. […]. Gemcitabine was formulated in saline and administered by intraperitoneal injection. Tumor volume and body weight were measured twice weekly. When tumors were collected for biomarker analysis, the animals were asphyxiated with CO2 and the xenograft tumors excised, flash frozen in liquid nitrogen, and stored at −80 °C until analyzed. […] The log volume data were analyzed with a 2-way repeated measures analysis of variance by time and treatment using the MIXED procedure in SAS software (version 9.2). […]

[21] = target: T2, HIPK2 (Homo sapiens, UniProt Q9H2X6); test: Millipore (UBI) kinase panel HIPK2; assay type: biochemical; conditions: generated at millipore (UBI) kinase panel
T2 construct: purchased Millipore/UBI

[22] = test system: pERK HCT116; test: pERK inhibition, HCT116; assay type: cell-based; conditions: Homo sapiens, HCT-116; read-out: pERK inh. HCT116 IC50
[23] = test system: p-Rb, TopoIIα, pHH3 in colo-205 xenografts; conditions: 24 h after oral dosing
[24] = test system: Rb-deficient MDA-MB-468 breast cancer cells; test: Flow cytometry cell cycle distribution, MDA-MB-468; assay type: cell-based, human; conditions: MDA-MB-468, concentrations up to 2,500 nmol/L
[25] = phase 1 study in advanced cancer patients ref 38, 39; cited from earlier work
[26] = target: T3, DRAK1 (Homo sapiens, UniProt Q9UEE5); test: Millipore (UBI) kinase panel DRAK1; assay type: biochemical; conditions: generated at millipore (UBI) kinase panel
T3 construct: purchased Millipore/UBI

[27] = test system: MV4-11 AML xenografts; test: Subcutaneous MV4-11 xenograft antitumor activity; assay type: in vivo, mice; conditions: 50 mg/kg qdx21, day 49
Description: as §3
as §4, with “Treated groups are compared to the control group at each time point.” left out

[28] = test system: H460 lung xenografts; test: Subcutaneous H460 xenograft antitumor activity; assay type: in vivo, mice; conditions: 50 mg/kg qdx21, day 35
Description: as §3
as §4, with “Treated groups are compared to the control group at each time point.” left out

[29] = test system: U87 MG glioblastoma xenografts; test: Subcutaneous U87 MG xenograft antitumor activity; assay type: in vivo, mice; conditions: 50 mg/kg qdx21, day 31
Description: as §3
as §4, with “Treated groups are compared to the control group at each time point.” left out

[30] = test system: Jeko1 MCL xenografts; test: Subcutaneous Jeko1 xenograft antitumor activity; assay type: in vivo, mice; conditions: 100 mg/kg, day 45
Description: as §3
as §4, with “Treated groups are compared to the control group at each time point.” left out

[31] = test system: Calu-6 lung xenografts; test: Subcutaneous Calu-6 xenograft antitumor activity; assay type: in vivo, mice; conditions: 50 mg/kg LY2835219 oral, 60 or 150 mg/kg gemcitabine i.p.
Description: as §3
as §4, with “Treated groups are compared to the control group at each time point.” left out

[32] = test system: RRM1 expression in Calu-6 xenografts; test: Western blot of RRM1 in Calu-6 xenograft tumors; assay type: in vivo, mice; conditions: 150 mg/kg dose, Calu-6 tumors 24 h after last dose
Description: as §4

[33] = colo-205 xenograft dose response

Sequence of Aurora A (O14965 whole entry): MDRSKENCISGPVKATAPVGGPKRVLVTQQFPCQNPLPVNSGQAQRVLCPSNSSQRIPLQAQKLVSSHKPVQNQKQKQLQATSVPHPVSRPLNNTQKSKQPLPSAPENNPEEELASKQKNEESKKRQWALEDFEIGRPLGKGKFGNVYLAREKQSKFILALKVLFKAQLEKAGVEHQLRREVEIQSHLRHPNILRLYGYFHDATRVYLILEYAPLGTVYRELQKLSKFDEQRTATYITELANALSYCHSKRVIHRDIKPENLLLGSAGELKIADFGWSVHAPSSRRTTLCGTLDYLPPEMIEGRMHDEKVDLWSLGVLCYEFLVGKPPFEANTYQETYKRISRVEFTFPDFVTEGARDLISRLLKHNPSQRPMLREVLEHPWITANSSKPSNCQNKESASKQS
Sequence of PLK1 (P53350 whole entry): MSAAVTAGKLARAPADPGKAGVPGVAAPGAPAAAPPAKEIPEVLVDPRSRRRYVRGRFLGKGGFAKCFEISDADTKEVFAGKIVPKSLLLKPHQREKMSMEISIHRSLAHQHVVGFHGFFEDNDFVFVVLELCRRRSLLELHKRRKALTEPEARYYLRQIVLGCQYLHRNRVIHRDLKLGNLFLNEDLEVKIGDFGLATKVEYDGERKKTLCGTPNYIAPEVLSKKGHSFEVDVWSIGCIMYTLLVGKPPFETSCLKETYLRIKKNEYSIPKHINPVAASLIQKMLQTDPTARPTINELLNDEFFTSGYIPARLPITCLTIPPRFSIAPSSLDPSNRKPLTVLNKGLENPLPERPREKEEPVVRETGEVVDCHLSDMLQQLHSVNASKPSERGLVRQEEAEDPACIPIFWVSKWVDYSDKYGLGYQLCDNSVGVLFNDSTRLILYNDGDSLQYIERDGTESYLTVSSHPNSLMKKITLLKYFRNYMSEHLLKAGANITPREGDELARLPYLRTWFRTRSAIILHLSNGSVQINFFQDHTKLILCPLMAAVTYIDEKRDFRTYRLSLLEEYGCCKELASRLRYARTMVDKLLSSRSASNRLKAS
Sequence of Aurora B (Q96GD4 whole entry): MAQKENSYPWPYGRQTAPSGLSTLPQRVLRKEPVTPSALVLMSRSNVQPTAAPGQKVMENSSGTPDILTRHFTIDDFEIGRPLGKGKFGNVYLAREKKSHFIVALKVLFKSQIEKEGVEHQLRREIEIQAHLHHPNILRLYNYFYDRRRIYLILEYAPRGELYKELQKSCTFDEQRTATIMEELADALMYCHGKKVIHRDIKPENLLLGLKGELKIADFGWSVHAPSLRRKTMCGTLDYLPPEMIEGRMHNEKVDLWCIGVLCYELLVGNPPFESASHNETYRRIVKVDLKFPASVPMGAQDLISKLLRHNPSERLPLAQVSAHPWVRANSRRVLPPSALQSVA
T1 sequence (P04629 33-796): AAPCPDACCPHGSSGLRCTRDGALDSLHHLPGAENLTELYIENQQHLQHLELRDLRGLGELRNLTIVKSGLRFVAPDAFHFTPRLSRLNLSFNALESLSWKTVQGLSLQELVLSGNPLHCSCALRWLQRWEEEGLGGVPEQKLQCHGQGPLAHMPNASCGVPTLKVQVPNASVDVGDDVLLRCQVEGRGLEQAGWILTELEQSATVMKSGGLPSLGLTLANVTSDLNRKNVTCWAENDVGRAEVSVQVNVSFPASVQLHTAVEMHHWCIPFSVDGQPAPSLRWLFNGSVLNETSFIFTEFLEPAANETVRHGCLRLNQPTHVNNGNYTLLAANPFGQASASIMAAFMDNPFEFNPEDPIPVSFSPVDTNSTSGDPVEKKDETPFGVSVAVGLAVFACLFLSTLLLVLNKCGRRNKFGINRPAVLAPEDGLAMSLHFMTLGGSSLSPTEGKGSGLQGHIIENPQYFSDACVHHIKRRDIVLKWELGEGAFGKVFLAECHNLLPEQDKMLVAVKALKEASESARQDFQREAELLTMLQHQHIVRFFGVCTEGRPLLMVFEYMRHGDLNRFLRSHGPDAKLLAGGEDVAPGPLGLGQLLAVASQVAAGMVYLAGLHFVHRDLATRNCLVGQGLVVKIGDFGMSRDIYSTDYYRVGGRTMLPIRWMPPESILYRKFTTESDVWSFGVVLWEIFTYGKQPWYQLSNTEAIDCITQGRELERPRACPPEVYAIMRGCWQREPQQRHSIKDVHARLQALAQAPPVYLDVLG
Sequence of cRaf (P04049 whole entry): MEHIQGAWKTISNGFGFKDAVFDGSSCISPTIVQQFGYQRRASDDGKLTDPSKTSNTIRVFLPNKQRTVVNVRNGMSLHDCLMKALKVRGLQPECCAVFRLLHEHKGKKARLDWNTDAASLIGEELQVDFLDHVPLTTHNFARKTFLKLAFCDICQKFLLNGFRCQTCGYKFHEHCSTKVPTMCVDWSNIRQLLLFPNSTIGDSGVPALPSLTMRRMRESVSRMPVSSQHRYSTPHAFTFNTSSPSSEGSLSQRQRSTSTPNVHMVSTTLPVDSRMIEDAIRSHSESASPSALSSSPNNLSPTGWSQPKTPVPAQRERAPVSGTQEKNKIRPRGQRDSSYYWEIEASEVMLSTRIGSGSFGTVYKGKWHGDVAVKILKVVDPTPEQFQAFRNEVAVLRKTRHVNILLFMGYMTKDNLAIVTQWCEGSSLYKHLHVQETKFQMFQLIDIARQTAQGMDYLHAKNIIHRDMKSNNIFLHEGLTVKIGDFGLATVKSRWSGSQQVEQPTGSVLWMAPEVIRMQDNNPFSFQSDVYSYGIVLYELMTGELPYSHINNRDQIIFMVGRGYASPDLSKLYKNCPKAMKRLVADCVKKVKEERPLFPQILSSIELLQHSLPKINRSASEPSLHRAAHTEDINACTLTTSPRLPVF
T2 sequence (Q9H2X6 whole entry): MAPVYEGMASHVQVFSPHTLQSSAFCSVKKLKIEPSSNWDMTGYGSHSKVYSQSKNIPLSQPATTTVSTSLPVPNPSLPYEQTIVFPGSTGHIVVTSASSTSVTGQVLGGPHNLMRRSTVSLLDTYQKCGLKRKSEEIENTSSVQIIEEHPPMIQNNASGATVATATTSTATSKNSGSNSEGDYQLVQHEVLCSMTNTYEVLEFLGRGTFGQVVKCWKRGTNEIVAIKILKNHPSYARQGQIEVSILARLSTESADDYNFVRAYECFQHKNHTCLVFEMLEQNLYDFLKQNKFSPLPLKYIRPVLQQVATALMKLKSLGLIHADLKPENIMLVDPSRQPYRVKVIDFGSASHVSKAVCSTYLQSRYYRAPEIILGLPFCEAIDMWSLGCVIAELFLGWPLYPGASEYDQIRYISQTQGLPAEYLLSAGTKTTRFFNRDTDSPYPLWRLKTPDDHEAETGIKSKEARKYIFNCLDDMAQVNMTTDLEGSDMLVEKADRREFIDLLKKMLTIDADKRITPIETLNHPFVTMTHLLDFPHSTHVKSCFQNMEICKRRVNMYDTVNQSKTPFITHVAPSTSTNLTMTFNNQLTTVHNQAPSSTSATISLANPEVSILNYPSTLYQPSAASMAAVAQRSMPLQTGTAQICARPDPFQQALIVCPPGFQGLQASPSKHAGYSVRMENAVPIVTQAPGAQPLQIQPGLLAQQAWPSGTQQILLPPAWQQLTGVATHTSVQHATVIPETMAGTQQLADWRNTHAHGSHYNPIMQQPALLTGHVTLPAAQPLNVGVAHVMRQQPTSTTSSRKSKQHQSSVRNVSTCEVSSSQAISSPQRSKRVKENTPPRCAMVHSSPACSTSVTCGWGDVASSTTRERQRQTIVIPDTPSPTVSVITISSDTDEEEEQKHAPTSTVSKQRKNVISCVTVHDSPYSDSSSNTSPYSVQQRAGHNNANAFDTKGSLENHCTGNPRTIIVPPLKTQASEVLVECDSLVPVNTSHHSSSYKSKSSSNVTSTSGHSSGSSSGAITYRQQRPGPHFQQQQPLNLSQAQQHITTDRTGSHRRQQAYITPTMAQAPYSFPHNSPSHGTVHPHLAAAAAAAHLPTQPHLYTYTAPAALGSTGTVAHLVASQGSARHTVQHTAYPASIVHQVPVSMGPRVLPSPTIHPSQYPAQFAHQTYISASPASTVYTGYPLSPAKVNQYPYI
Sequence of bRaf (P15056 whole entry): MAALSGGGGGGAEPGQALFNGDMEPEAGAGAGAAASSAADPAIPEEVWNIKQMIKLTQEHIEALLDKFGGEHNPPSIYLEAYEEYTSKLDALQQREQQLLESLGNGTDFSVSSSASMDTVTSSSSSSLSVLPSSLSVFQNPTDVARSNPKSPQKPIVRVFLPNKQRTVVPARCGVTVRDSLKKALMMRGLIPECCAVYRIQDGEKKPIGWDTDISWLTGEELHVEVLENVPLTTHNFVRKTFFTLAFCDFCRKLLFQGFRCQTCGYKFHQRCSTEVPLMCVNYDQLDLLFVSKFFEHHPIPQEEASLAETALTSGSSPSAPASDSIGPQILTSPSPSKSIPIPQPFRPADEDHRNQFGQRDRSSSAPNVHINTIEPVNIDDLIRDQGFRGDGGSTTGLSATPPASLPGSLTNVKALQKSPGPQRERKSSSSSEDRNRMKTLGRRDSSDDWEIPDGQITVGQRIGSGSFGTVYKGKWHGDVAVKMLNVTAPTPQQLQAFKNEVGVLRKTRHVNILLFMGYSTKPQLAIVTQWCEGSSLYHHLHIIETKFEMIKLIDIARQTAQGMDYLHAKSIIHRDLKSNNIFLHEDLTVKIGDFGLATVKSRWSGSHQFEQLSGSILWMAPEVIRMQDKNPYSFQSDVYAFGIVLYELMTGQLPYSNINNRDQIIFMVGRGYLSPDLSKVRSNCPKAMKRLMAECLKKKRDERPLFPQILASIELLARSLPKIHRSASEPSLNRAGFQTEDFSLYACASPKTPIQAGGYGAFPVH

SMILES: CN1CC[C@H](c2c(O)cc(O)c3c(=O)cc(-c4ccccc4Cl)oc23)[C@H](O)C1 [Flavopiridol]
- 2N cell population ([1]; 2.2 µM): 22%
- 4N cell population ([1]; 2.2 µM): 74%
- S cell population ([1]; 2.2 µM): 4%
- 2N cell population ([1]; 6.6 µM): 23%
- 4N cell population ([1]; 6.6 µM): 72%
- S cell population ([1]; 6.6 µM): 5%
- 2N cell population ([2]; 2.2 µM): 54%
- 4N cell population ([2]; 2.2 µM): 44%
- S cell population ([2]; 2.2 µM): 2%
- 2N cell population ([2]; 6.6 µM): 50%
- 4N cell population ([2]; 6.6 µM): 49%
- S cell population ([2]; 6.6 µM): 1%
- EC50 ([2]; Homo sapiens, COLO 205, read-out: G1 arrest in Colo205 (increase in cells with 2N DNA content) EC50): > 20 µM
- IC50 [3]: 0.147 µM

SMILES: CCN1CCN(Cc2ccc(Nc3ncc(F)c(-c4cc(F)c5nc(C)n(C(C)C)c5c4)n3)nc2)CC1 [LY2835219, [5-(4-Ethyl-piperazin-1-ylmethyl)-pyridin-2-yl]-[5-fluoro-4-(7-fluoro-3-isopropyl-2-methyl-3H-benzoimidazol-5-yl)-pyrimidin-2-yl]-amine]
- minimum steady state trough plasma concentration required for robust efficacy [4]: approximately 200 ng/mL; also recorded: approximately 400 nM
- IC50 [5]: > 20 µM
- activity against Aurora B [5]: Complete lack of activity
- IC50 [6]: > 20 µM
- minimally efficacious dose for tumor growth inhibition ([7]; colo-205 xenografts): 12.5 mg/kg
- IC50 [8]: > 20 µM
- IC50 [9]: > 20 µM
- activity against Aurora A [9]: Complete lack of activity
- IC50 [10]: > 20 µM
- IC50 [11]: > 20 µM
- 2N cell population ([1]; 2.2 µM): 56%
- S cell population ([1]; 2.2 µM): 6%
- 2N cell population ([1]; 6.6 µM): 44%
- S cell population ([1]; 6.6 µM): 7%
- ability to cross the blood–brain barrier [12]: effectively cross the blood–brain barrier
- IC50 [13]: ~0.1 µM
- G1 arrest in Rb-proficient cells [14]: induced a G1 arrest
- IC50 [15]: > 20 µM
- activity against PLK1 [15]: Complete lack of activity
- IC50 [16]: 6.33 µM
- IC50 [17]: 1.03 µM
- 4N cell population ([2]; 2.2 µM): 16%
- S cell population ([2]; 2.2 µM): 0%
- 2N cell population ([2]; 6.6 µM): 75%
- IC50 [18]: > 20 µM
- compound concentration up to which G1 arrest was sustained ([19]; MV4-11): up to 5,000 nmol/L
- concentration at which maximum G1 arrest was seen ([19]; MV4-11, 24 h): ≥ 320 nmol/L
- histopathologic evaluation of intestinal tissue (jejunum, ileum, cecum) ([20]; days 41 and 69): no significant changes in intestinal tissue
- hematologic changes ([20]; not dose-limiting): decreases in red cell mass and moderately reduced lymphocyte count
- IC50 [21]: 0.031 µM
- IC50 [22]: > 20 µM
- TED70 for in vivo inhibition of TopoII [23, 33]: 14 mg/kg
- TED70 for in vivo inhibition of pRb [23, 33]: 14 mg/kg
- doses at which p-Rb, TopoIIα and pHH3 were all significantly inhibited ([23]; colo-205 xenografts): ≥ 12.5 mg/kg
- G1 arrest in Rb-deficient cells [24]: no such effect
- mean maximum steady state plasma concentration [25]: 562 nM
- IC50 [26]: 0.659 µM

SMILES: CC(=O)c1c(C)c2cnc(Nc3ccc(N4CCNCC4)cn3)nc2n(C2CCCC2)c1=O [PD0332991, 6-Acetyl-8-cyclopentyl-5-methyl-2-[[5-(1-piperazinyl)-2-pyridinyl]amino] pyrido[2,3-d] pyrimidin-7 (8H)-one]
- Percent delta T/C, percent regression [27]: 16%
- Percent delta T/C, percent regression [28]: 60%
- Percent delta T/C, percent regression ([7]; 50 mg/kg (schedule not given), day 39): 7%
- Percent delta T/C, percent regression ([7]; 100 mg/kg qdx21, day 35): −1%
- Percent delta T/C, percent regression [29]: 26%
- Percent delta T/C, percent regression [30]: 12%

SMILES: Nc1ccn([C@@H]2O[C@H](CO)[C@@H](O)C2(F)F)c(=O)n1 [gemcitabine, 2′,2′-difluorodeoxycytidine hydrochloric salt]
- tumor growth inhibition, compound alone [31]: active in inhibiting tumor growth
- increase of RRM1 compared to vehicle [32]: 75%
